This assay deals with L1210 leukemia ip in BDF1 mice, survival T/C. Nature of the assay: NCI In Vivo Anticancer Drug Screen. Data for tumor model L1210 Leukemia (intraperitoneal) in B6D2F1 (BDF1) mice. Particulars: endpoint: mean survival time, higher = longer survival. The method, boiled down:
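Ratio derived from survival: compound-dosed mice over vehicle-dosed mice, all bearing a transplantable tumor.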

Setting [1] is: dose: 25.0 mg/kg/injection, schedule: Q01DX009 (ip), vehicle: saline.
The mark [2] stands for this setting: dose: 50.0 mg/kg/injection, schedule: Q01DX009 (ip), vehicle: saline.
Setting [3] is: dose: 100.0 mg/kg/injection, schedule: Q01DX009 (ip), vehicle: saline.
Setting [4] is: dose: 100.0 mg/kg/injection, schedule: Q01DX001 (ip), vehicle: saline.
Where [5] appears, read: dose: 200.0 mg/kg/injection, schedule: Q01DX001 (ip), vehicle: saline.
[6] abbreviates: dose: 100.0 mg/kg/injection, schedule: Q01DX009 (ip), vehicle: Klucel (hydroxypropylcellulose) (HPC).
Where [7] appears, read: dose: 200.0 mg/kg/injection, schedule: Q01DX009 (ip), vehicle: Klucel (hydroxypropylcellulose) (HPC).
Setting [8] is: dose: 400.0 mg/kg/injection, schedule: Q01DX009 (ip), vehicle: Klucel (hydroxypropylcellulose) (HPC).
Where [9] appears, read: dose: 100.0 mg/kg/injection, schedule: Q01DX001 (ip), vehicle: carboxymethylcellulose (CMC).
Setting [10] is: dose: 200.0 mg/kg/injection, schedule: Q01DX001 (ip), vehicle: carboxymethylcellulose (CMC).
[11] abbreviates: dose: 400.0 mg/kg/injection, schedule: Q01DX001 (ip), vehicle: carboxymethylcellulose (CMC).
Setting [12] is: dose: 100.0 mg/kg/injection, schedule: Q04DX003 (ip), vehicle: Klucel (hydroxypropylcellulose) (HPC).
[13] abbreviates: dose: 100.0 mg/kg/injection, schedule: Q04DX003 (ip), vehicle: saline.
The mark [14] stands for this setting: dose: 100.0 mg/kg/injection, schedule: Q04DX002 (ip), vehicle: saline with Tween-80.
[15] abbreviates: dose: 200.0 mg/kg/injection, schedule: Q01DX009 (ip), vehicle: saline.
Setting [16] is: dose: 400.0 mg/kg/injection, schedule: Q01DX009 (ip), vehicle: saline.

Results on 27 compounds are retold here after PubChem BioAssay AID248 (DTP/NCI, 2004).

Inconclusive results and toxic doses are left out.

Regarding `COc1ccc(C(=O)NC2CCC2)cc1`, the T/C by setting is: under setting [1], 100 % of control; under setting [2], 108 % of control; under setting [3], 100 % of control.
With `NC(=O)CC(NC(=O)CCl)C(=O)O` (centres undefined), the T/C was 104 % of control (dose: 100.0 mg/kg/injection, schedule: Q01DX009 (ip), vehicle: saline with Tween-80); 87 % of control (dose: 200.0 mg/kg/injection, schedule: Q01DX009 (ip), vehicle: saline with Tween-80); 86 % of control (dose: 400.0 mg/kg/injection, schedule: Q01DX009 (ip), vehicle: saline with Tween-80).
As for `O=C1C=C(c2c(-c3ccccc3)[nH]c3ccccc23)C(=O)c2ccccc21`, the T/C reads like this: (dose: 100.0 mg/kg/injection, schedule: Q01DX001 (ip), vehicle: other) 92 % of control; (dose: 200.0 mg/kg/injection, schedule: Q01DX001 (ip), vehicle: other) 97 % of control.
For `CCc1c(Cl)nc(N)nc1Nc1ccc(C)c(C)c1`, the T/C reads like this: (dose: 100.0 mg/kg/injection, schedule: Q01DX Z (ip), vehicle: methylcellulose (MC)) 91 % of control; (dose: 200.0 mg/kg/injection, schedule: Q01DX Z (ip), vehicle: methylcellulose (MC)) 93 % of control.
Regarding `CCCCCCCCCCCCNNC(=O)OCCO`, the T/C is, setting by setting: under setting [4], 101 % of control; under setting [5], 93 % of control.
As for `Cc1ccon1`, the T/C under setting [4] was 102 % of control; the T/C under setting [5] is 100 % of control; the T/C (dose: 400.0 mg/kg/injection, schedule: Q01DX001 (ip), vehicle: saline) is 96 % of control.
Regarding `COc1nc(=O)n(C2CCCO2)cc1I` (centres undefined), the T/C runs as follows: (dose: 50.0 mg/kg/injection, schedule: Q01DX001 (ip), vehicle: saline) 95 % of control; under setting [4], 95 % of control; under setting [5], 90 % of control.
Turning to `c1cc2c(cc1CCc1ccc3c(c1)OCO3)OCO2`, the T/C by setting is: (dose: 100.0 mg/kg/injection, schedule: Q04DX002 (ip), vehicle: Klucel (hydroxypropylcellulose) (HPC)) 96 % of control; (dose: 200.0 mg/kg/injection, schedule: Q04DX002 (ip), vehicle: Klucel (hydroxypropylcellulose) (HPC)) 86 % of control; (dose: 400.0 mg/kg/injection, schedule: Q04DX002 (ip), vehicle: Klucel (hydroxypropylcellulose) (HPC)) 104 % of control.
As for `O=C(Nc1ccc(Cl)c(Cl)c1)N(CCO)Cc1ccccc1`, the T/C is 90 % of control under setting [6], 92 % of control under setting [7] and 97 % of control under setting [8].
Take `O=C1c2ccccc2-c2c(Br)c3ccccc3c(=O)n21`: the T/C (dose: 50.0 mg/kg/injection, schedule: Q01DX001 (ip), vehicle: carboxymethylcellulose (CMC)) was 91 % of control; the T/C under setting [9] was 89 % of control; the T/C under setting [10] was 91 % of control; the T/C under setting [11] was 94 % of control.
For `Cc1ccc(NC(=O)/C=C/c2ccccc2)cc1Cl`, the T/C by setting is: under setting [6], 95 % of control; under setting [7], 98 % of control; under setting [8], 104 % of control.
As to `NC1(C(=O)O)CCc2ccccc2C1` (centres undefined), the T/C is, setting by setting: under setting [12], 91 % of control; (dose: 400.0 mg/kg/injection, schedule: Q04DX003 (ip), vehicle: Klucel (hydroxypropylcellulose) (HPC)) 99 % of control.
Turning to `CC1(Br)OC(=O)C(C)(Br)OC1=O` (centres undefined), the T/C reads like this: under setting [13], 96 % of control; (dose: 200.0 mg/kg/injection, schedule: Q04DX003 (ip), vehicle: saline) 96 % of control.
With `Nc1ccccc1Sc1ccc2c3c(cccc13)C(=O)N(c1ccccc1)C2=O`, the T/C reads like this: under setting [14], 87 % of control; (dose: 400.0 mg/kg/injection, schedule: Q04DX002 (ip), vehicle: saline with Tween-80) 94 % of control.
Turning to `CC1(C)N=C(N)N=C(N)N1c1ccc(OCCCCOc2ccc(S(=O)(=O)F)cc2)cc1`, the T/C (dose: 75.0 mg/kg/injection, schedule: Q01DX001 (ip), vehicle: Klucel (hydroxypropylcellulose) (HPC)) was 106 % of control; the T/C (dose: 150.0 mg/kg/injection, schedule: Q01DX001 (ip), vehicle: Klucel (hydroxypropylcellulose) (HPC)) was 91 % of control; the T/C (dose: 300.0 mg/kg/injection, schedule: Q01DX001 (ip), vehicle: Klucel (hydroxypropylcellulose) (HPC)) was 96 % of control.
Consider `CCC1(C(C)C)SC(N)=NC1=O` (centres undefined), for which the T/C reads like this: under setting [9], 102 % of control; under setting [10], 94 % of control; under setting [11], 96 % of control.
Turning to `Cc1ccc(NCCN2CCCCC2)c2c(=O)c3ccccc3sc12`, the T/C reads like this: under setting [3], 110 % of control; under setting [15], 96 % of control; under setting [16], 107 % of control.
With `CC(=O)N(NC(C)C)C(C)C`, the T/C reads like this: (dose: 6.25 mg/kg/injection, schedule: Q01DX009 (ip), vehicle: saline) 104 % of control; (dose: 12.5 mg/kg/injection, schedule: Q01DX009 (ip), vehicle: saline) 93 % of control; under setting [1], 94 % of control; (dose: 25.0 mg/kg/injection, schedule: Q04DX003 (ip), vehicle: saline) 98 % of control; under setting [2], 100 % of control; (dose: 50.0 mg/kg/injection, schedule: Q04DX003 (ip), vehicle: saline) 98 % of control. Moreover, the T/C was 104 % of control under setting [3] and 93 % of control under setting [13].
In the case of `CC(C)[PH+]1c2ccccc2-c2ccccc21.CC(C)[PH+]1c2ccccc2-c2ccccc21.[Cl][Pt][Cl]`, the T/C by setting is: (dose: 12.5 mg/kg/injection, schedule: Q04DX003 (ip), vehicle: saline with Tween-80) 98 % of control; (dose: 25.0 mg/kg/injection, schedule: Q04DX003 (ip), vehicle: saline with Tween-80) 98 % of control; (dose: 50.0 mg/kg/injection, schedule: Q04DX003 (ip), vehicle: saline with Tween-80) 98 % of control.
Regarding `CC1(c2ccccc2)O[C@@H]2C[C@H]3[C@@H]4CCC5=CC(=O)C=C[C@]5(C)[C@@]4(F)[C@@H](O)C[C@]3(C)[C@]2(C(=O)CO)O1` (some centres undefined), the T/C runs as follows: (dose: 100.0 mg/kg/injection, schedule: Q01DX001 (sc), vehicle: steriod suspending solution) 117 % of control; (dose: 200.0 mg/kg/injection, schedule: Q01DX001 (sc), vehicle: steriod suspending solution) 98 % of control; (dose: 400.0 mg/kg/injection, schedule: Q01DX001 (sc), vehicle: steriod suspending solution) 107 % of control.
For the compound `OCC1=CCN(CCc2c[nH]c3ccccc23)CC1`, the T/C was 95 % of control (dose: 100.0 mg/kg/injection, schedule: Q04DX003 (ip), vehicle: saline with Tween-80); 88 % of control (dose: 200.0 mg/kg/injection, schedule: Q04DX003 (ip), vehicle: saline with Tween-80); 94 % of control (dose: 400.0 mg/kg/injection, schedule: Q04DX003 (ip), vehicle: saline with Tween-80).
As for `C=C(CCCCCC/C=C\CCCCCCCC)C(=O)O`, the T/C (dose: 100.0 mg/kg/injection, schedule: Q04DX002 (sc), vehicle: olive oil, sesame oil, peanut oil) was 103 % of control; the T/C (dose: 200.0 mg/kg/injection, schedule: Q04DX002 (sc), vehicle: olive oil, sesame oil, peanut oil) was 103 % of control; the T/C (dose: 400.0 mg/kg/injection, schedule: Q04DX002 (sc), vehicle: olive oil, sesame oil, peanut oil) is 103 % of control.
As to `CCCCCCCCN(c1ccc(C(=O)NC(CCC(=O)OCC)C(=O)OCC)cc1)S(=O)(=O)c1ccc(C)cc1` (centres undefined), the T/C runs as follows: (dose: 12.5 mg/kg/injection, schedule: Q01DX009 (ip), vehicle: saline with Tween-80) 95 % of control; (dose: 25.0 mg/kg/injection, schedule: Q01DX009 (ip), vehicle: saline with Tween-80) 95 % of control; (dose: 50.0 mg/kg/injection, schedule: Q01DX009 (ip), vehicle: saline with Tween-80) 95 % of control.
For `CNc1nc(N)c(N=O)c(Nc2ccc(Br)cc2)n1`, the T/C was 102 % of control under setting [9], 104 % of control under setting [10] and 102 % of control under setting [11].
Turning to `NC(=S)NNc1ccccc1`, the T/C reads like this: under setting [14], 105 % of control; (dose: 200.0 mg/kg/injection, schedule: Q04DX002 (ip), vehicle: saline with Tween-80) 105 % of control.
In the case of `CC1(N)CCOC1=O` (centres undefined), the T/C under setting [3] was 93 % of control, the T/C under setting [15] was 93 % of control and the T/C under setting [16] is 93 % of control.
`CCCCN(CCCCS(=O)(=O)O)c1ccc(N=Nc2cc(Cl)ccc2Cl)cc1`: the T/C was 94 % of control under setting [12] and 105 % of control (dose: 200.0 mg/kg/injection, schedule: Q04DX003 (ip), vehicle: Klucel (hydroxypropylcellulose) (HPC)).
